Experimental data: US20260144788A1, “COMPOUND FOR SHP2 PROTEIN DEGRADATION AND MEDICAL USES THEREOF” (UBIX THERAPEUTICS, INC., priority 2022, published 2026)

Biological target: T1, SHP2 protein (Homo sapiens, UniProt Q06124)
T1 sequence (Q06124 1-593): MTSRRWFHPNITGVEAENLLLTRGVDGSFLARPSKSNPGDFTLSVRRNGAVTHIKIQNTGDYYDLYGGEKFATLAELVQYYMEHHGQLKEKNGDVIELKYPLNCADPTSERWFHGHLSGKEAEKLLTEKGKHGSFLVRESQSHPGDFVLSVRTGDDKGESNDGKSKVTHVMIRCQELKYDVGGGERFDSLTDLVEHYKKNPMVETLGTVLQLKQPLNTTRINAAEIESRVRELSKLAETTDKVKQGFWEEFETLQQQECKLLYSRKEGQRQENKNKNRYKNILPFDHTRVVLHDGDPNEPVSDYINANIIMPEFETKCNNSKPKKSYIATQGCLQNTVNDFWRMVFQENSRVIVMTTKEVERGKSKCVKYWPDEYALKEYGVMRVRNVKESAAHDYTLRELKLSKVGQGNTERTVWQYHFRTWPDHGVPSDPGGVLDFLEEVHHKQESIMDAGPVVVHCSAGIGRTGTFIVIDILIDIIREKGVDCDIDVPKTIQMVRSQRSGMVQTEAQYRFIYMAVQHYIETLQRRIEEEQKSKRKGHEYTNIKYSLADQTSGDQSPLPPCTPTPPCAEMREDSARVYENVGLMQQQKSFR
Assay: Measurement of SHP2 protein degradation in MV-4-11 cells (western blotting)
Assay type: cell-based
Parameters: endogenous in cells
Settings: harvested after 24 hours
Method in brief: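 MV-4-11 cells in IMDM/5% FBS were exposed to compound at final 0.01, 0.1, 1 μM or 0.001, 0.01, 0.1 μM for 24 h, DMSO as negative control. BCA-normalised lysates were immunoblotted for SHP2 with GAPDH as loading control, read on LI-COR Odyssey.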

Row | SMILES | SHP2% degradation (0.01 μM) [%] | SHP2% degradation (0.1 μM) [%]
1 | Cc1ncsc1-c1ccc(CNC(=O)[C@@H]2C[C@@H](O)CN2C(=O)[C@@H](NC(=O)C2(F)CC2)C(C)(C)C)c(O[C@H]2CC[C@H](C(=O)N3CC(Nc4cccc(Sc5cnc(N6CCC7(CC6)Cc6ccccc6[C@H]7N)cn5)c4Cl)C3)CC2)c1 [Example 14, (2S,4R)—N-(2-(((1R,4S)-4-(3-((3-((5-((S)-1-amino-1,3-dihydrospiro[indene-2,4′-piperidin]-1′-yl)pyrazin-2-yl)thio)-2-chlorophenyl)amino)azetidine-1-carbonyl)cyclohexyl)oxy)-4-(4-methylthiazol-5-yl)benzyl)-1-((S)-2-(1-fluorocyclopropane-1-carboxamido)-3,3-dimethylbutanoyl)-4-hydroxypyrrolidine-2-carboxamide] | 1.2 | 85.1
2 | Cc1ncsc1-c1ccc(CNC(=O)[C@@H]2C[C@@H](O)CN2C(=O)[C@@H](NC(=O)C2(F)CC2)C(C)(C)C)c(O[C@H]2CC[C@H](C(=O)N3CCC(Nc4nccc(Sc5cnc(N6CCC(C)(CN)CC6)cn5)c4Cl)CC3)CC2)c1 [Example 23, (2S,4R)—N-(2-(((1R,4S)-4-(4-((4-((5-(4-(aminomethyl)-4-methylpiperidin-1-yl)pyrazin-2-yl)thio)-3-chloropyridin-2-yl)amino)piperidine-1-carbonyl)cyclohexyl)oxy)-4-(4-methylthiazol-5-yl)benzyl)-1-((S)-2-(1-fluorocyclopropane-1-carboxamido)-3,3-dimethylbutanoyl)-4-hydroxypyrrolidine-2-carboxamide] | 74.2 | 99.8
3 | Cc1ncsc1-c1ccc(CNC(=O)[C@@H]2C[C@@H](O)CN2C(=O)[C@@H](NC(=O)C2(F)CC2)C(C)(C)C)c(OCCN2CCN(CCNc3cccc(Sc4cnc(N5CCC(C)(CN)CC5)cn4)c3Cl)C(=O)C2)c1 [Example 3, (2S,4R)—N-(2-(2-(4-(2-((3-((5-(4-(aminomethyl)-4-methylpiperidin-1-yl)pyrazin-2-yl)thio)-2-chlorophenyl)amino)ethyl)-3-oxopiperazin-1-yl)ethoxy)-4-(4-methylthiazol-5-yl)benzyl)-1-((S)-2-(1-fluorocyclopropane-1-carboxamido)-3,3-dimethylbutanoyl)-4-hydroxypyrrolidine-2-carboxamide] | 19 | 90.3
4 | Cc1ncsc1-c1ccc(CNC(=O)[C@@H]2C[C@@H](O)CN2C(=O)[C@@H](NC(=O)C2(F)CC2)C(C)(C)C)c(OC2CCN(C(=O)[C@H]3C[C@@H](Nc4nccc(Sc5cnc(N6CCC(C)(N)CC6)cn5)c4Cl)C3)CC2)c1 [Example 60, (2S,4R)—N-(2-((1-((1S,3R)-3-((4-((5-(4-amino-4-methylpiperidin-1-yl)pyrazin-2-yl)thio)-3-chloropyridin-2-yl)amino)cyclobutanecarbonyl)piperidin-4-yl)oxy)-4-(4-methylthiazol-5-yl)benzyl)-1-((S)-2-(1-fluorocyclopropane-1-carboxamido)-3,3-dimethylbutanoyl)-4-hydroxypyrrolidine-2-carboxamide] | 81.5 | 99.3
5 | Cc1ncsc1-c1ccc(CNC(=O)[C@@H]2C[C@@H](O)CN2C(=O)[C@@H](NC(=O)C2(F)CC2)C(C)(C)C)c(OCCN2CCC(C(=O)N3CCC(Nc4cccc(Sc5cnc(N6CCC(C)(CN)CC6)cn5)c4Cl)CC3)CC2)c1 [Example 51, (2S,4R)—N-(2-(2-(4-(4-((3-((5-(4-(aminomethyl)-4-methylpiperidin-1-yl)pyrazin-2-yl)thio)-2-chlorophenyl)amino)piperidine-1-carbonyl)piperidin-1-yl)ethoxy)-4-(4-methylthiazol-5-yl)benzyl)-1-((S)-2-(1-fluorocyclopropane-1-carboxamido)-3,3-dimethylbutanoyl)-4-hydroxypyrrolidine-2-carboxamide] | 32.9 | 92.6
6 | CC(=O)N[C@H](C(=O)N1C[C@H](O)C[C@H]1C(=O)NCc1ccc(-c2scnc2C)cc1O[C@H]1CC[C@H](C(=O)N2CC(Nc3cccc(Sc4cnc(N5CCC6(CC5)CO[C@@H](C)[C@H]6N)cn4)c3Cl)C2)CC1)C(C)(C)C [Example 29, (2S,4R)-1-((S)-2-acetamido-3,3-dimethylbutanoyl)-N-(2-(((1r,4S)-4-(3-((3-((5-((3S,4S)-4-amino-3-methyl-2-oxa-8-azaspiro[4.5]decan-8-yl)pyrazin-2-yl)thio)-2-chlorophenyl)amino)azetidine-1-carbonyl)cyclohexyl)oxy)-4-(4-methylthiazol-5-yl)benzyl)-4-hydroxypyrrolidine-2-carboxamide] | 97.2 | 99.9
7 | Cc1ncsc1-c1ccc(CNC(=O)[C@@H]2C[C@@H](O)CN2C(=O)[C@@H](NC(=O)C2(F)CC2)C(C)(C)C)c(OC2CCN(C(=O)CC3(O)CCN(c4nccc(Sc5cnc(N6CCC(C)(CN)CC6)cn5)c4Cl)CC3)CC2)c1 [Example 72, (2S,4R)—N-(2-((1-(2-(1-(4-((5-(4-(aminomethyl)-4-methylpiperidin-1-yl)pyrazin-2-yl)thio)-3-chloropyridin-2-yl)-4-hydroxypiperidin-4-yl)acetyl)piperidin-4-yl)oxy)-4-(4-methylthiazol-5-yl)benzyl)-1-((S)-2-(1-fluorocyclopropane-1-carboxamido)-3,3-dimethylbutanoyl)-4-hydroxypyrrolidine-2-carboxamide] | 91.5 | 99.8
8 | Cc1ncsc1-c1ccc(CNC(=O)[C@@H]2C[C@@H](O)CN2C(=O)[C@@H](NC(=O)C2(F)CC2)C(C)(C)C)c(O[C@H]2CC[C@H](C(=O)N3CCC(Nc4cccc(Sc5cnc(N6CCC(C)(CN)CC6)cn5)c4Cl)CC3)CC2)c1 [Example 17, (2S,4R)—N-(2-(((1R,4S)-4-(4-((3-((5-(4-(aminomethyl)-4-methylpiperidin-1-yl)pyrazin-2-yl)thio)-2-chlorophenyl)amino)piperidine-1-carbonyl)cyclohexyl)oxy)-4-(4-methylthiazol-5-yl)benzyl)-1-((S)-2-(1-fluorocyclopropane-1-carboxamido)-3,3-dimethylbutanoyl)-4-hydroxypyrrolidine-2-carboxamide] | 64.4 | 96.6
9 | Cc1ncsc1-c1ccc(CNC(=O)[C@@H]2C[C@@H](O)CN2C(=O)[C@@H](NC(=O)C2(F)CC2)C(C)(C)C)c(OCCN2CCC(C(=O)N3CC(Nc4cccc(Sc5cnc(N6CCC(C)(CN)CC6)cn5)c4Cl)C3)CC2)c1 [Example 50, (2S,4R)—N-(2-(2-(4-(3-((3-((5-(4-(aminomethyl)-4-methylpiperidin-1-yl)pyrazin-2-yl)thio)-2-chlorophenyl)amino)azetidine-1-carbonyl)piperidin-1-yl)ethoxy)-4-(4-methylthiazol-5-yl)benzyl)-1-((S)-2-(1-fluorocyclopropane-1-carboxamido)-3,3-dimethylbutanoyl)-4-hydroxypyrrolidine-2-carboxamide] | 67.3 | 97.6
